In patent US20260285857A1, “BICYCLIC AND HETEROCYCLIC AMIDE COMPOUNDS” (priority 2024, published 2026):
Where two headings read alike, the source gives them in different places.

System: immunoglobulin light chain protein WIL-FL T46L
Assay: Differential scanning fluorimetry (thermal shift) assay
Format: binding
[1] = Table B, temperature shift [Tm]compound-[Tm]vehicle, recombinant WIL-FL T46L

Cc1nc([C@H]2[C@@]3(C(C)(C)O)CO[C@]2(c2nc4c(C)cc(N5CC[C@](C)(c6ccccc6)C5)cn4n2)C3)n[nH]1 [Compound 541]
DSF [1]: ***** (>2.5° C.=*****)

Cc1nc([C@@H]2[C@]3(C(C)(C)O)CO[C@@]2(c2nc4c(C)cc(N5CC[C@](C)(c6ccccc6)C5)cn4n2)C3)n[nH]1 [Compound 542]
DSF [1]: ***** (>2.5° C.=*****)

CC(=O)N[C@@]12CO[C@@](c3nc4c(C)cc(N5CC[C@](C)(c6ccccc6)C5)cn4n3)(C1)[C@@H]2CO [Compound 544, N-((1S,4S,5S)-5-(hydroxymethyl)-1-(8-methyl-6-((R)-3-methyl-3-phenylpyrrolidin-1-yl)-[1,2,4]triazolo[1,5-a]pyridin-2-yl)-2-oxabicyclo[2.1.1]hexan-4-yl)acetamide]
DSF [1]: ***** (>2.5° C.=*****)

Cc1cc(N2CC[C@](C)(c3ccccc3)C2)cn2nc(C34CC(C(=O)O)(CO3)C4c3nc(N)n[nH]3)nc12 (stereo partly drawn) [Compound 545, 5-(3-amino-1H-1,2,4-triazol-5-yl)-1-[8-methyl-6-[(3R)-3-methyl-3-phenyl-pyrrolidin-1-yl]-[1,2,4]triazolo[1,5-a]pyridin-2-yl]-2-oxabicyclo[2.1.1]hexane-4-carboxylic acid]
DSF [1]: ***** (>2.5° C.=*****)

Cc1cc(N2CC[C@](C)(c3ccccc3)C2)cn2nc(C34CC(N5CCC(C(=O)O)CC5=O)(CO3)C4CO)nc12 (stereo partly drawn) [Compound 546, 1-(5-(hydroxymethyl)-1-(8-methyl-6-((R)-3-methyl-3-phenylpyrrolidin-1-yl)-[1,2,4]triazolo[1,5-a]pyridin-2-yl)-2-oxabicyclo[2.1.1]hexan-4-yl)-2-oxopiperidine-4-carboxylic acid]
DSF [1]: ***** (>2.5° C.=*****)

CCS(=O)(=O)Nc1n[nH]c(C2C3(CNC(=O)CC(C)(C)C(=O)O)COC2(c2nc4c(C)cc(N5CC[C@](C)(c6ccccc6)C5)cn4n2)C3)n1 (stereo partly drawn) [Compound 547, 4-[[5-[3-(ethylsulfonylamino)-1H-1,2,4-triazol-5-yl]-1-[8-methyl-6-[(3R)-3-methyl-3-phenyl-pyrrolidin-1-yl]-[1,2,4]triazolo[1,5-a]pyridin-2-yl]-2-oxabicyclo[2.1.1]hexan-4-yl]methylamino]-2,2-dimethyl-4-oxo-butanoic acid]
DSF [1]: ***** (>2.5° C.=*****)

CCS(=O)(=O)Nc1n[nH]c(C2C3(CN)COC2(c2nc4c(C)cc(N5CC[C@](C)(c6ccccc6)C5)cn4n2)C3)n1 (stereo partly shown) [Compound 548]
DSF [1]: ***** (>2.5° C.=*****)

Cc1cc(N2CC[C@](C)(c3ccccc3)C2)cn2nc(C34CC(CO3)C4c3nc(NC(=O)c4cccc(C(=O)O)n4)n[nH]3)nc12 (stereo partly shown) [Compound 549]
DSF [1]: ***** (>2.5° C.=*****)

Cc1cc(N2CC[C@](C)(c3ccccc3)C2)cn2nc(C34CC(CO3)C4c3nc(NC(=O)C4CC(C(=O)O)C4)n[nH]3)nc12 (stereo partly shown) [Compound 550]
DSF [1]: ***** (>2.5° C.=*****)

CCOC(=O)Nc1n[nH]c(C2C3COC2(c2nc4c(C)cc(N5CC[C@](C)(c6ccccc6)C5)cn4n2)C3)n1 (stereo partly shown) [Compound 551]
DSF [1]: ***** (>2.5° C.=*****)

Cc1cc(N2CC[C@](C)(c3ccccc3)C2)cn2nc(C34CC(CO3)C4c3nc(NC(=O)N4CC(C(=O)O)C4)n[nH]3)nc12 (stereo partly shown) [Compound 554]
DSF [1]: ***** (>2.5° C.=*****)

Cc1cc(N2CC[C@](C)(c3ccccc3)C2)cn2nc(C34CC(CO3)C4c3nc(NC(=O)C4CC(C)(C(=O)O)C4)n[nH]3)nc12 (stereo partly shown) [Compound 555]
DSF [1]: ***** (>2.5° C.=*****)

Cc1cc(N2CC[C@](C)(c3ccccc3)C2)cn2nc(C34CC(CO3)C4c3nc(N)nn3C(=O)C3CC(C)(C(=O)O)C3)nc12 (stereo partly shown) [Compound 556]
DSF [1]: ***** (>2.5° C.=*****)

Cc1cc(N2CC[C@](C)(c3ccccc3)C2)cn2nc(C34CC(CO3)C4c3nc(NC(=O)[C@@H]4C[C@H]4C(=O)O)n[nH]3)nc12 (stereo partly shown) [Compound 557]
DSF [1]: ***** (>2.5° C.=*****)

Cc1cc(N2CC[C@](C)(c3ccccc3)C2)cn2nc(C34CC(CO3)C4c3nc(NC(=O)c4cccnc4C(=O)O)n[nH]3)nc12 (stereo partly shown) [Compound 558]
DSF [1]: ***** (>2.5° C.=*****)

Cc1cc(N2CC[C@](C)(c3ccccc3)C2)cn2nc(C34CC(CO3)C4c3nc(NC(=O)CC4(C(=O)O)CC4)n[nH]3)nc12 (stereo partly shown) [Compound 559]
DSF [1]: ***** (>2.5° C.=*****)

Cc1cc(N2CC[C@](C)(c3ccccc3)C2)cn2nc(C34CC(CO3)C4c3nc(NC(=O)C4CC5(CC(C(=O)O)C5)C4)n[nH]3)nc12 (stereo partly shown) [Compound 560]
DSF [1]: ***** (>2.5° C.=*****)

Cc1cc(N2CC[C@](C)(c3ccccc3)C2)cn2nc(C34CC(CO3)C4c3nc(NS(=O)(=O)[C@H]4CC[C@@H](C(=O)O)CC4)n[nH]3)nc12 (stereo partly shown) [Compound 561]
DSF [1]: ***** (>2.5° C.=*****)

Cc1cc(N2CC[C@](C)(c3ccccc3)C2)cn2nc(C34CC(CO3)C4c3nc(NS(=O)(=O)[C@H]4CC[C@H](C(=O)O)CC4)n[nH]3)nc12 (stereo partly shown) [Compound 562]
DSF [1]: ***** (>2.5° C.=*****)

CCS(=O)(=O)Nc1n[nH]c(C2C3COC2(c2nc4c(C)cc(N5CC[C@@](C)(n6ccc(C(F)(F)F)n6)C5)cn4n2)C3)n1 (stereo partly shown) [Compound 563]
DSF [1]: **** (>1.5-2.5° C.=****)

Cc1cc(N2CC[C@](C)(c3ccccc3)C2)cn2nc(C34CC(CO3)C4c3nc(NS(=O)(=O)CC(C)(C)C(=O)O)n[nH]3)nc12 (stereo partly shown) [Compound 564]
DSF [1]: ***** (>2.5° C.=*****)

Cc1cc(N2CC[C@](C)(c3ccccc3)C2)cn2nc(C34CC(CO3)C4c3nc(NS(=O)(=O)C4CC(C)(C(=O)O)C4)n[nH]3)nc12 (stereo partly shown) [Compound 565]
DSF [1]: ***** (>2.5° C.=*****)

Cc1cc(N2CC[C@](C)(c3ccccc3)C2)cn2nc(C34CC(CO3)C4c3nc(N)nn3S(=O)(=O)C3CC(C)(C(=O)O)C3)nc12 (stereo partly shown) [Compound 566]
DSF [1]: ***** (>2.5° C.=*****)

COC(C)(CS(=O)(=O)Nc1n[nH]c(C2C3COC2(c2nc4c(C)cc(N5CC[C@](C)(c6ccccc6)C5)cn4n2)C3)n1)C(=O)O (stereo partly shown) [Compound 567]
DSF [1]: **** (>1.5-2.5° C.=****)

Cc1cc(N2CC[C@](C)(c3ccccc3)C2)cn2nc(C34CC(CO3)C4c3nc(NS(=O)(=O)C4COC(C(=O)O)C4)n[nH]3)nc12 (stereo partly shown) [Compound 568]
DSF [1]: ***** (>2.5° C.=*****)

Cc1cc(N2CC[C@](C)(c3ccccc3)C2)cn2nc(C34CC(CO)(CO3)C4C(=O)NCC(C)(C)C(=O)O)nc12 (stereo partly drawn) [Compound 569, 3-[[4-(hydroxymethyl)-1-[8-methyl-6-[(3R)-3-methyl-3-phenyl-pyrrolidin-1-yl]-[1,2,4]triazolo[1,5-a]pyridin-2-yl]-2-oxabicyclo[2.1.1]hexane-5-carbonyl]amino]-2,2-dimethyl-propanoic acid]
DSF [1]: **** (>1.5-2.5° C.=****)

Cc1cc(N2CC[C@](C)(c3ccccc3)C2)cn2nc(C34CC(CO)(CO3)C4c3nnn(C)n3)nc12 (stereo partly shown) [Compound 570, (5-(2-methyl-2 h-tetrazol-5-yl)-1-(8-methyl-6-((r)-3-methyl-3-phenylpyrrolidin-1-yl)-[1,2,4]triazolo[1,5-a]pyridin-2-yl)-2-oxabicyclo[2.1.1]hexan-4-yl)methanol]
DSF [1]: ***** (>2.5° C.=*****)

Cc1cc(N2CC[C@](C)(c3ccccc3)C2)cn2nc(C34CC(CO)(CO3)C4c3nnnn3C)nc12 (stereo partly shown) [Compound 571]
DSF [1]: ***** (>2.5° C.=*****)

CCC(=O)Nc1n[nH]c(C2C3(CO)COC2(c2nc4c(C)cc(N5CC[C@](C)(c6ccccc6)C5)cn4n2)C3)n1 (stereo partly drawn) [Compound 572, N-[5-[4-(hydroxymethyl)-1-[8-methyl-6-[(3R)-3-methyl-3-phenyl-pyrrolidin-1-yl]-[1,2,4]triazolo[1,5-a]pyridin-2-yl]-2-oxabicyclo[2.1.1]hexan-5-yl]-1H-1,2,4-triazol-3-yl]propanamide]
DSF [1]: ***** (>2.5° C.=*****)

CCS(=O)(=O)Nc1nc(C2C3(CO)COC2(c2nc4c(C)cc(N5CC[C@](C)(c6ccccc6)C5)cn4n2)C3)n[nH]1 (stereo partly drawn) [Compound 573, N-[3-[4-(hydroxymethyl)-1-[8-methyl-6-[(3R)-3-methyl-3-phenyl-pyrrolidin-1-yl]-[1,2,4]triazolo[1,5-a]pyridin-2-yl]-2-oxabicyclo[2.1.1]hexan-5-yl]-1H-1,2,4-triazol-5-yl]ethanesulfonamide]
DSF [1]: ***** (>2.5° C.=*****)

Cc1cc(N2CC[C@](C)(c3ccccc3)C2)cn2nc(C34CC(CO)(CO3)C4c3nc(NS(=O)(=O)CC(C)(C)C(=O)O)n[nH]3)nc12 (stereo partly shown) [Compound 574]
DSF [1]: ***** (>2.5° C.=*****)

Cc1cc(N2CC[C@](C)(c3ccccc3)C2)cn2nc(C34CC(CO)(CO3)C4C(=O)O)nc12 (stereo partly shown) [Compound 575, 4-(hydroxymethyl)-1-(8-methyl-6-((r)-3-methyl-3-phenylpyrrolidin-1-yl)-[1,2,4]triazolo[1,5-a]pyridin-2-yl)-2-oxabicyclo[2.1.1]hexane-5-carboxylic acid]
DSF [1]: ***** (>2.5° C.=*****)

Cc1cc(N2CC[C@](C)(c3ccccc3)C2)cn2nc(C34CC(CO)(CO3)C4N3CC4(CC4)NC3=O)nc12 (stereo partly drawn) [Compound 576, 6-(4-(hydroxymethyl)-1-(8-methyl-6-((R)-3-methyl-3-phenylpyrrolidin-1-yl)-[1,2,4]triazolo[1,5-a]pyridin-2-yl)-2-oxabicyclo[2.1.1]hexan-5-yl)-4,6-diazaspiro[2.4]heptan-5-one]
DSF: ***** (key: 0-0.5° C.=*; >0.5-1 °C =**; >1-1.5° C.=***; >1.5-2.5° C.=****; >2.5° C.=*****)

Cc1cc(N2CC[C@](C)(c3ccccc3)C2)cn2nc(C34CC(CO)(CO3)C4N3CC4(COC4)NC3=O)nc12 (stereo partly shown) [Compound 577]
DSF [1]: ***** (>2.5° C.=*****)

Cc1n[nH]c(C2C3(CO)COC2(c2nc4c(C)cc(N5CC6(CCC6c6ccccc6)C5)cn4n2)C3)n1 (stereo not shown) [Compound 578, [1-[8-methyl-6-(7-phenyl-2-azaspiro[3.3]heptan-2-yl)-[1,2,4]triazolo[1,5-a]pyridin-2-yl]-5-(3-methyl-1H1,2,4-triazol-5-yl)-2-oxabicyclo[2.1.1]hexan-4-yl]methanol]
DSF [1]: ***** (>2.5° C.=*****)

CCC1(c2ccccc2)CN(c2cc(C)c3nc(C45CC(CO)(CO4)C5c4nc(C)n[nH]4)nn3c2)C1 (stereo not shown) [Compound 579]
DSF [1]: **** (>1.5-2.5° C.=****)

Cc1nc([C@H]2[C@@]3(CO)CO[C@]2(c2nc4c(C)cc(N5CC[C@](C)(c6ccccc6)C5)cn4n2)C3)n[nH]1 [Compound 580, ((1R,4S,5R)-5-(5-methyl-1H-1,2,4-triazol-3-yl)-1-(8-methyl-6-((R)-3-methyl-3-phenylpyrrolidin-1-yl)-[1,2,4]triazolo[1,5-a]pyridin-2-yl)-2-oxabicyclo[2.1.1]hexan-4-yl)methanol]
DSF [1]: ***** (>2.5° C.=*****)
